Test results published in patent publication US20240116985A1, “STAPLED PEPTIDES AND METHODS THEREOF” (priority 2020, published 2024).

Tests used:
CHI Log D procedure = assay type: physicochemical; conditions: for CHI Log D: pH 7.4; for chromatographic logD: pH 7.4, CHI Log D
[1] = biological target: T1, full-length B-Catenin (Uniprot ID P35222) (Homo sapiens, UniProt P35222); experiment: Alphascreen binding assay (beta-catenin / biotin-TCF4 10-53)
T1 construct: 65 nM full-length B-Catenin (Uniprot ID P35222)
T1 sequence (P35222 1-781): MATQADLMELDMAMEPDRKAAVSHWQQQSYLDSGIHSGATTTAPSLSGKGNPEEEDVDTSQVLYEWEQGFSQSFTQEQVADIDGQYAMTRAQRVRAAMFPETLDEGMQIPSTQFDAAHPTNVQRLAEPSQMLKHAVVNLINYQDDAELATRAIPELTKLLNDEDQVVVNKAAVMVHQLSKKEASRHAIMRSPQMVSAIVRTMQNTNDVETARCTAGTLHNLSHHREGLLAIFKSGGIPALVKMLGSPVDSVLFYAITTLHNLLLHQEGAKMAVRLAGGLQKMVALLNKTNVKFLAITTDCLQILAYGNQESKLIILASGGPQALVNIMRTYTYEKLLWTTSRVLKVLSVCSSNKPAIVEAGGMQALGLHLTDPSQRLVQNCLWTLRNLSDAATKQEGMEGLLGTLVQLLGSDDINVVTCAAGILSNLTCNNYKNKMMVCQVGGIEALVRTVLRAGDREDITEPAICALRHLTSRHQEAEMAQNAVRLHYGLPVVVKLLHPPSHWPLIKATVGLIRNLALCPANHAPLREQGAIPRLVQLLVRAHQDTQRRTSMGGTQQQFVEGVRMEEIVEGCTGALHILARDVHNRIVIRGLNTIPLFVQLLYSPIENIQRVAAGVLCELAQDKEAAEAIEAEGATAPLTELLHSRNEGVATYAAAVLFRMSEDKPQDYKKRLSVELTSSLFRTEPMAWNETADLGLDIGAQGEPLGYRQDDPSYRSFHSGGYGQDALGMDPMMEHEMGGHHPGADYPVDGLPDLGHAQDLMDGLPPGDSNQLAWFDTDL
Method in brief: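 AlphaScreen (Ni-chelate beads) competition in 50 mM Tris pH 8.0, 250 mM NaCl with detergents and 0.1% BSA. Peptide titrated 10 uM–5 nM against 65 nM human β-catenin bound to 10 nM biotinylated TCF4 10-53, 15 min then 60 min with beads, both at 20 °C; 1:1 Hill-slope fit.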

Row | Compound | CHI Log D (CHI Log D procedure) | EC50 [1] | chromatographic logD (CHI Log D procedure)
1 | CC(=O)N1CCC[C@]12CC=CCCCC1(CCCC=CCCCCCC[C@@](C)(C(=O)N[C@@H](Cc3ccccc3)C(=O)N[C@@H](Cc3c[nH]c4ccccc34)C(=O)N[C@@H](CCC(N)=O)C(N)=O)NC(=O)[C@H](C(C)C)NC(=O)[C@H](Cc3ccc(C(F)(F)F)cc3)NC(=O)[C@H](C)NC(=O)[C@H](C)NC(=O)[C@H](CC(=O)O)NC(=O)[C@H](CC(=O)O)NC1=O)NC(=O)[C@H](C)NC(=O)[C@H](CC(=O)O)NC2=O (stereo partly drawn) [I-243, Ac-PL3-Asp-Ala-B5-Asp-Asp-Ala-Ala-4F3MeF-Val-S8-Phe-Trp-Gln-NH2] | 2.098 | 4900 nM | 
2 | CC(=O)N1CCC[C@]12CC=CCCCC1(CCCC=CCCCCCC[C@@](C)(C(=O)N[C@@H](Cc3ccccc3)C(=O)N[C@@H](Cc3c[nH]c4ccccc34)C(=O)N[C@@H](CCC(N)=O)C(N)=O)NC(=O)[C@H](C(C)C)NC(=O)[C@H](Cc3ccccc3)NC(=O)[C@H](C)NC(=O)[C@H](C)NC(=O)[C@H](Cc3cccc(C(F)(F)F)c3)NC(=O)[C@H](CC(=O)O)NC1=O)NC(=O)[C@H](C)NC(=O)[C@H](CC(=O)O)NC2=O (stereo partly drawn) [I-244, Ac-PL3-Asp-Ala-B5-Asp-3F3MeF-Ala-Ala-Phe-Val-S8-Phe-Trp-Gln-NH2] | 3.101 | 2960 nM | 
3 | CC(=O)N1CCC[C@]12CC=CCCCC1(CCCC=CCCCCCC[C@@](C)(C(=O)N[C@@H](Cc3ccccc3)C(=O)N[C@@H](Cc3c[nH]c4ccccc34)C(=O)N[C@@H](CCC(N)=O)C(N)=O)NC(=O)[C@H](C(C)C)NC(=O)[C@H](Cc3ccccc3)NC(=O)[C@H](C)NC(=O)[C@H](C)NC(=O)[C@H](Cc3ccc(C(F)(F)F)cc3)NC(=O)[C@H](CC(=O)O)NC1=O)NC(=O)[C@H](C)NC(=O)[C@H](CC(=O)O)NC2=O (stereo partly drawn) [I-246, Ac-PL3-Asp-Ala-B5-Asp-4F3MeF-Ala-Ala-Phe-Val-S8-Phe-Trp-Gln-NH2] | 3.01 | 3970 nM | 
4 | CC(=O)N1CCC[C@]12CC=CCCCC1(CCCC=CCCCCCC[C@@](C)(C(=O)N[C@@H](Cc3cccc(C(F)(F)F)c3)C(=O)N[C@@H](Cc3c[nH]c4ccccc34)C(=O)N[C@@H](CCC(N)=O)C(N)=O)NC(=O)[C@H](C(C)C)NC(=O)[C@H](Cc3ccccc3)NC(=O)[C@H](C)NC(=O)[C@H](C)NC(=O)[C@H](CC(=O)O)NC(=O)[C@H](CC(=O)O)NC1=O)NC(=O)[C@H](C)NC(=O)[C@H](CC(=O)O)NC2=O (stereo partly drawn) [I-248, Ac-PL3-Asp-Ala-B5-Asp-Asp-Ala-Ala-Phe-Val-S8-3F3MeF-Trp-Gln-NH2] | 2.263 | 2830 nM | 
5 | CC(=O)N1CCC[C@]12CC=CCCCC1(CCCC=CCCCCCC[C@@](C)(C(=O)N[C@@H](Cc3cccc(C(F)(F)F)c3)C(=O)N[C@@H](Cc3c[nH]c4ccccc34)C(=O)N[C@@H](CCC(N)=O)C(N)=O)NC(=O)[C@H](C(C)C)NC(=O)[C@H](Cc3ccccc3)NC(=O)[C@H](C)NC(=O)[C@H](C)NC(=O)[C@H](CC(=O)O)NC(=O)[C@H](CC(=O)O)NC1=O)NC(=O)[C@H](C)NC(=O)[C@H](CC(=O)O)NC2=O (stereo partly drawn) [I-249, Ac-PL3-Asp-Ala-B5-Asp-Asp-Ala-Ala-Phe-Val-S8-3F3MeF-Trp-Gln-NH2] | 2.263 | 2830 nM | 
6 | CC(=O)N1CCC[C@]12CC=CCCCC1(CCCC=CCCCCCC[C@@](C)(C(=O)N[C@@H](Cc3cccc(C(F)(F)F)c3)C(=O)N[C@@H](Cc3c[nH]c4ccccc34)C(=O)N[C@@H](CCC(N)=O)C(N)=O)NC(=O)[C@H](C(C)C)NC(=O)[C@H](Cc3ccccc3)NC(=O)[C@H](C)NC(=O)[C@H](C)NC(=O)[C@H](CC(=O)O)NC(=O)[C@H](CC(=O)O)NC1=O)NC(=O)[C@H](C)NC(=O)[C@H](CC(=O)O)NC2=O (stereo partly drawn) [I-250, Ac-PL3-Asp-Ala-B5-Asp-Asp-Ala-Ala-Phe-Val-S8-3F3MeF-Trp-Gln-NH2] | 2.299 | 1200 nM | 
7 | CC(=O)N1CCC[C@]12CC=CCCCC1(CCCC=CCCCCCC[C@@](C)(C(=O)N[C@@H](Cc3cccc(C(F)(F)F)c3)C(=O)N[C@@H](Cc3c[nH]c4ccccc34)C(=O)N[C@@H](CCC(N)=O)C(N)=O)NC(=O)[C@H](C(C)C)NC(=O)[C@H](Cc3ccccc3)NC(=O)[C@H](C)NC(=O)[C@H](C)NC(=O)[C@H](CC(=O)O)NC(=O)[C@H](CC(=O)O)NC1=O)NC(=O)[C@H](C)NC(=O)[C@H](CC(=O)O)NC2=O (stereo partly drawn) [I-251, Ac-PL3-Asp-Ala-B5-Asp-Asp-Ala-Ala-Phe-Val-S8-3F3MeF-Trp-Gln-NH2] | 2.299 | 1200 nM | 
8 | CC(=O)N1CCC[C@]12CC=CCCCC1(CCCC=CCCCCCC[C@@](C)(C(=O)N[C@@H](Cc3ccc(C(F)(F)F)cc3)C(=O)N[C@@H](Cc3c[nH]c4ccccc34)C(=O)N[C@@H](CCC(N)=O)C(N)=O)NC(=O)[C@H](C(C)C)NC(=O)[C@H](Cc3ccccc3)NC(=O)[C@H](C)NC(=O)[C@H](C)NC(=O)[C@H](CC(=O)O)NC(=O)[C@H](CC(=O)O)NC1=O)NC(=O)[C@H](C)NC(=O)[C@H](CC(=O)O)NC2=O (stereo partly drawn) [I-252, Ac-PL3-Asp-Ala-B5-Asp-Asp-Ala-Ala-Phe-Val-S8-4F3MeF-Trp-Gln-NH2] | 2.214 | 3690 nM | 

Next, values leading:

Row | CHI Log D (CHI Log D procedure) | EC50 [1] | chromatographic logD (CHI Log D procedure) | Compound
9 | 2.214 | 3690 nM |  | CC(=O)N1CCC[C@]12CC=CCCCC1(CCCC=CCCCCCC[C@@](C)(C(=O)N[C@@H](Cc3ccc(C(F)(F)F)cc3)C(=O)N[C@@H](Cc3c[nH]c4ccccc34)C(=O)N[C@@H](CCC(N)=O)C(N)=O)NC(=O)[C@H](C(C)C)NC(=O)[C@H](Cc3ccccc3)NC(=O)[C@H](C)NC(=O)[C@H](C)NC(=O)[C@H](CC(=O)O)NC(=O)[C@H](CC(=O)O)NC1=O)NC(=O)[C@H](C)NC(=O)[C@H](CC(=O)O)NC2=O (stereo partly drawn) [I-253, Ac-PL3-Asp-Ala-B5-Asp-Asp-Ala-Ala-Phe-Val-S8-4F3MeF-Trp-Gln-NH2]
10 | 2.232 | 1960 nM |  | CC(=O)N1CCC[C@]12CC=CCCCC1(CCCC=CCCCCCC[C@@](C)(C(=O)N[C@@H](Cc3ccc(C(F)(F)F)cc3)C(=O)N[C@@H](Cc3c[nH]c4ccccc34)C(=O)N[C@@H](CCC(N)=O)C(N)=O)NC(=O)[C@H](C(C)C)NC(=O)[C@H](Cc3ccccc3)NC(=O)[C@H](C)NC(=O)[C@H](C)NC(=O)[C@H](CC(=O)O)NC(=O)[C@H](CC(=O)O)NC1=O)NC(=O)[C@H](C)NC(=O)[C@H](CC(=O)O)NC2=O (stereo partly drawn) [I-254, Ac-PL3-Asp-Ala-B5-Asp-Asp-Ala-Ala-Phe-Val-S8-4F3MeF-Trp-Gln-NH2]
11 | 2.232 | 1960 nM |  | CC(=O)N1CCC[C@]12CC=CCCCC1(CCCC=CCCCCCC[C@@](C)(C(=O)N[C@@H](Cc3ccc(C(F)(F)F)cc3)C(=O)N[C@@H](Cc3c[nH]c4ccccc34)C(=O)N[C@@H](CCC(N)=O)C(N)=O)NC(=O)[C@H](C(C)C)NC(=O)[C@H](Cc3ccccc3)NC(=O)[C@H](C)NC(=O)[C@H](C)NC(=O)[C@H](CC(=O)O)NC(=O)[C@H](CC(=O)O)NC1=O)NC(=O)[C@H](C)NC(=O)[C@H](CC(=O)O)NC2=O (stereo partly drawn) [I-255, Ac-PL3-Asp-Ala-B5-Asp-Asp-Ala-Ala-Phe-Val-S8-4F3MeF-Trp-Gln-NH2]
12 |  | 4180 nM | 2.9 | CC(=O)N1CCC[C@]12CC=CCCCC1(CCCC=CCCCCCC[C@@](C)(C(=O)N[C@@H](Cc3ccccc3)C(=O)N[C@@H](Cc3c[nH]c4ccccc34)C(=O)N[C@@H](CCC(N)=O)C(N)=O)NC(=O)[C@H](C(C)C)NC(=O)[C@H](Cc3ccccc3)NC(=O)[C@H](C)NC(=O)[C@H](C)NC(=O)[C@H](Cc3ccc(F)c(F)c3)NC(=O)[C@H](CC(=O)O)NC1=O)NC(=O)[C@H](C)NC(=O)[C@H](CC(=O)O)NC2=O (stereo partly drawn) [I-259, Ac-PL3-Asp-Ala-B5-Asp-34FF-Ala-Ala-Phe-Val-S8-Phe-Trp-Gln-NH2]
13 |  | 1010 nM | 2.46 | CC(=O)N1CCC[C@]12CC=CCCCC1(CCCC=CCCCCCC[C@@](C)(C(=O)N[C@@H](Cc3ccccc3)C(=O)N[C@@H](Cc3c[nH]c4ccccc34)C(=O)N[C@@H](CCC(N)=O)C(N)=O)NC(=O)[C@H](C(C)C)NC(=O)[C@H](Cc3ccccc3)NC(=O)[C@H](C)NC(=O)[C@H](C)NC(=O)[C@H](Cc3ccncc3)NC(=O)[C@H](CC(=O)O)NC1=O)NC(=O)[C@H](C)NC(=O)[C@H](CC(=O)O)NC2=O (stereo partly drawn) [I-272, Ac-PL3-Asp-Ala-B5-Asp-4PyrA-Ala-Ala-Phe-Val-S8-Phe-Trp-Gln-NH2]
14 | 2.209 | 2230 nM |  | CC(=O)N1CCC[C@]12CC=CCCCC1(CCCC=CCCCCCC[C@@](C)(C(=O)N[C@@H](Cc3ccc4ccccc4c3)C(=O)N[C@@H](Cc3c[nH]c4ccccc34)C(=O)N[C@@H](CCC(N)=O)C(N)=O)NC(=O)[C@H](C(C)C)NC(=O)[C@H](Cc3ccccc3)NC(=O)[C@H](C)NC(=O)[C@H](C)NC(=O)[C@H](CC(=O)O)NC(=O)[C@H](CC(=O)O)NC1=O)NC(=O)[C@H](C)NC(=O)[C@H](CC(=O)O)NC2=O (stereo partly drawn) [I-278, Ac-PL3-Asp-Ala-B5-Asp-Asp-Ala-Ala-Phe-Val-S8-2NapA-Trp-Gln-NH2]
